Source: patent publication US10793556B2, “8-amino-2-oxo-1,3-diaza-spiro-[4.5]-decane derivatives” (Grünenthal GmbH, priority 2016, dated 2020)

Target: human mu-opioid peptide (hMOP) receptor (Homo sapiens (Human), UniProt P35372)
Assay: hMOP receptor binding assay (SPA, [3H]naloxone)

Sequence of human mu-opioid peptide (hMOP) receptor (P35372 whole entry): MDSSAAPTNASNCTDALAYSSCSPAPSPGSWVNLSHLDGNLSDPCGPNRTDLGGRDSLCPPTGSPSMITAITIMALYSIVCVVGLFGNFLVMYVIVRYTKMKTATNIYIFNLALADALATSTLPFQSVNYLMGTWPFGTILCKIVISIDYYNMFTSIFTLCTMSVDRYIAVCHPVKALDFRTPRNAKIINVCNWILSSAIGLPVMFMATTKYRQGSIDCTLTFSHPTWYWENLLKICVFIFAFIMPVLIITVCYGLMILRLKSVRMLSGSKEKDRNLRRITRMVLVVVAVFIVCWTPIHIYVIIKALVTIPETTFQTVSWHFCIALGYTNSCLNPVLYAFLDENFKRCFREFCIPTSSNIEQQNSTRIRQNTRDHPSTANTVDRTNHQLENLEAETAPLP

## CN(C)[C@]1(c2ccccc2)CC[C@]2(CC1)CN(CC(C)(C)N1C(=O)CCC1=O)C(=O)N2CC1CC1 [SC_4084, CIS-1-[2-[1-(Cyclopropyl-methyl)-8-dimethylamino-2-oxo-8-phenyl-1,3-diazaspiro[4.5]decan-3-yl]-1,1-dimethyl-ethyl]-pyrrolidine-2,5-dione]
  Ki: 2470 nM
